Source: ChEMBL document CHEMBL1909046, “DrugMatrix in vitro pharmacology data”

Experiments:
[1] = molecular target: Mitogen-activated protein kinase 1 (Homo sapiens, UniProt P28482); assay: DRUGMATRIX: Protein Serine/Threonine Kinase, ERK2 enzyme inhibition (substrate: Myelin Basic Protein); parameters: species or system Escherichia coli; conditions: Not Active = under 50% inhibition at 10 µM
[2] = molecular target: T1, Caspase-1 (Homo sapiens, UniProt P29466); parameters: species or system Escherichia coli;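 also: Caspase-1 enzyme inhibition assay with a peptide substrate; in other assays of this panel Not Active means under 50% inhibition at 10 µM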
T1 sequence (P29466 whole entry): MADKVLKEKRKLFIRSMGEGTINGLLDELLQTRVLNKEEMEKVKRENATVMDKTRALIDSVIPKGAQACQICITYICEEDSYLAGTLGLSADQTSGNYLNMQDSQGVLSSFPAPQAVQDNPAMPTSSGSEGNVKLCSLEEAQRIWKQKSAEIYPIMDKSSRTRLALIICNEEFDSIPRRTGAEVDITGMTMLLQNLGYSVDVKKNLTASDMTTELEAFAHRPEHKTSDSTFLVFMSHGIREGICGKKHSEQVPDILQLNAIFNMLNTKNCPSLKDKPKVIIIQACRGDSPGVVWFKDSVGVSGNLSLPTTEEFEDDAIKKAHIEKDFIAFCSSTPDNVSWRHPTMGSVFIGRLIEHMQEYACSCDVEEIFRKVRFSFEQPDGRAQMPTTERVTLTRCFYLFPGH

[3] = molecular target: C-C chemokine receptor type 5 (Homo sapiens, UniProt P51681); format: cell membranes, Membrane; conditions: hek293; also: in other assays of this panel Not Active means under 50% inhibition at 10 µM
Chain of C-C chemokine receptor type 5 (P51681 whole entry): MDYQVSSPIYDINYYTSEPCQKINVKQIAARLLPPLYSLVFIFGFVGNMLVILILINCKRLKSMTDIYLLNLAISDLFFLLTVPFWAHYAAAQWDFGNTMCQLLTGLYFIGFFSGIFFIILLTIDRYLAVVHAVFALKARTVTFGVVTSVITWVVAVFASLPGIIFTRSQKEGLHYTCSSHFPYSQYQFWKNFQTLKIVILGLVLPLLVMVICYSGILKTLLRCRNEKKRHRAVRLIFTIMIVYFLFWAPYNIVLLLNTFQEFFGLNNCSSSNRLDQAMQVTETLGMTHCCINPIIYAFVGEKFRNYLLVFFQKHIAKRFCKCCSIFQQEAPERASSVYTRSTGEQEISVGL

[4] = molecular target: T2, Neuropeptide Y receptor type 1 (Homo sapiens, UniProt P25929); format: cell membranes, Membrane; conditions: sk-n-mc; also: in other assays of this panel Not Active means under 50% inhibition at 10 µM
T2 sequence (P25929 whole entry): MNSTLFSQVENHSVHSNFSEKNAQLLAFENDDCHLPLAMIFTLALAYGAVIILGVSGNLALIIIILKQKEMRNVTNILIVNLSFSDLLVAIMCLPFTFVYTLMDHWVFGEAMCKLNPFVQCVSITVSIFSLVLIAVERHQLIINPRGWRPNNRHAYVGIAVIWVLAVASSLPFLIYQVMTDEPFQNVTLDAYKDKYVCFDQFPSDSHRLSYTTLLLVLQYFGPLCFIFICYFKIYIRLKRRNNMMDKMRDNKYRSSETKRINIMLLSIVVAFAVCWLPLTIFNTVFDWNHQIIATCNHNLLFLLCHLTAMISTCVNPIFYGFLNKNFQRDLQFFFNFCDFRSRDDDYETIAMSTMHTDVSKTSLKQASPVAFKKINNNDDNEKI

[5] = molecular target: T3, D(4) dopamine receptor (Homo sapiens, UniProt P21917); assay: DRUGMATRIX: Dopamine D4.2 radioligand binding (ligand: [3H] Spiperone); format: cell membranes, CHO-K1, Membrane; conditions: cho-k1; Not Active = under 50% inhibition at 10 µM
T3 sequence (P21917 whole entry): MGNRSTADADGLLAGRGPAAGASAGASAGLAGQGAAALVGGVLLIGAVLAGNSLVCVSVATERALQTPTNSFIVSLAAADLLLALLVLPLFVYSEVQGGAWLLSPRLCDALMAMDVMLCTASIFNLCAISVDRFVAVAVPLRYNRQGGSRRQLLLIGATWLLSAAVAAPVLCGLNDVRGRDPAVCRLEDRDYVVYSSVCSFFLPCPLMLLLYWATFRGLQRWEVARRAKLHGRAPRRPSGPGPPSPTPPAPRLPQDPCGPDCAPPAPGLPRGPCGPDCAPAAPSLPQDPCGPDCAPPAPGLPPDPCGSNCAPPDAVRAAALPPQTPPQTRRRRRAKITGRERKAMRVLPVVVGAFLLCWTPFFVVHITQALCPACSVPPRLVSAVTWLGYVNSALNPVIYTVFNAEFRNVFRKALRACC

[6] = molecular target: Beta-2 adrenergic receptor (Homo sapiens, UniProt P07550); assay: DRUGMATRIX: Adrenergic beta2 radioligand binding (ligand: [3H] CGP-12177); format: cell membranes, CHO, Membrane; conditions: cho; Not Active = under 50% inhibition at 10 µM
[7] = molecular target: T4, Neuropeptide Y receptor type 2 (Homo sapiens, UniProt P49146); format: cell membranes, Membrane; conditions: kan-ts; also: in other assays of this panel Not Active means under 50% inhibition at 10 µM
T4 sequence (P49146 whole entry): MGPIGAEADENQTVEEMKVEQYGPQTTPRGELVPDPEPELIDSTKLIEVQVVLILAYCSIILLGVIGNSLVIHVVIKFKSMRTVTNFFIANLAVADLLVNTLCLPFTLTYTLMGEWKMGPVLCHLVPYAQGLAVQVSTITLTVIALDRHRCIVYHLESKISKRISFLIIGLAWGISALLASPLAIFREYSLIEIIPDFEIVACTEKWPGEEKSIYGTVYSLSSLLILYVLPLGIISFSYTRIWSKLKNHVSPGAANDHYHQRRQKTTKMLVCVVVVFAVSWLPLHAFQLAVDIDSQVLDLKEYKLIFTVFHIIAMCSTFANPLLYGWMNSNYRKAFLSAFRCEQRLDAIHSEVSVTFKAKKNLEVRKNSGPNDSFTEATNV

[8] = molecular target: Protein phosphatase 3 catalytic subunit alpha (Homo sapiens, UniProt Q08209); parameters: species or system Escherichia coli

Chain of Mitogen-activated protein kinase 1 (P28482 whole entry): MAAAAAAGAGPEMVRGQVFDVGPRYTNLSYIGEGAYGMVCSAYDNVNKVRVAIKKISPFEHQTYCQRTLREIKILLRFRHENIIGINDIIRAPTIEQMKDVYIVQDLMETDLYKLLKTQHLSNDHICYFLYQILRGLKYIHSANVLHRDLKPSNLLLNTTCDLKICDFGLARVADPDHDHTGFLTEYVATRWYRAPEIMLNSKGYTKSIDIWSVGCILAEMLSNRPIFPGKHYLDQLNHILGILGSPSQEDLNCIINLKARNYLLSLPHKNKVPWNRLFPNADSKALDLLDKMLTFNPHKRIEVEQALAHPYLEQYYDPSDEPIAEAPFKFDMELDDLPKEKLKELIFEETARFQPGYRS

CC(=O)OCC(COC(C)=O)OC(C)=O [TRIACETIN]
Not Active: IC50 [1] | IC50 [2] | IC50 [3] | IC50 [4] | IC50 [5] | IC50 [6] | IC50 [7] | IC50 [8]

CN1CCN(CCCN2c3ccccc3Sc3ccc(C(F)(F)F)cc32)CC1 [TRIFLUOPERAZINE]
Not Active: IC50 [1] | IC50 [2] | IC50 [3] | IC50 [4] | IC50 [5] | IC50 [6] | IC50 [7] | IC50 [8]

TRANSPLATIN
Not Active: IC50 [1] | Ki [1] | IC50 [2] | Ki [2] | IC50 [3] | Ki [3] | IC50 [4] | Ki [4] | IC50 [5] | Ki [5] | IC50 [6] | Ki [6] | IC50 [7] | Ki [7] | IC50 [8] | Ki [8]

ZIRCONIUM(IV) CHLORIDE
Not Active: IC50 [1] | Ki [1] | IC50 [2] | Ki [2] | IC50 [3] | Ki [3] | IC50 [4] | Ki [4] | IC50 [5] | Ki [5] | IC50 [6] | Ki [6] | IC50 [7] | Ki [7] | IC50 [8] | Ki [8]
